Results: patent US8871787B2, “Stable crystalline salt of (R)-3-fluorophenyl-3,4,5-trifluorobenzylcarbamic acid 1-azabicyclo [2.2.2]oct-3-yl ester” (Laboratorios Salvat, S.A., priority 2007, dated 2014)

Experiments:
[1] = Hygroscopicity study at controlled relative humidity; format: physicochemical; parameters: mass gain or mass loss: unit not given here
[2] = Physicochemical stability and hygroscopicity of the salts on storage; conditions: for physicochemical stability (in words): storage or formulation, room and enhanced temperature, high humidity, aqueous media
Excerpt: Compound I is also disclosed in WO2004000840. On the other hand, compound I is exemplified as hydrochloride salt in WO2003053966 as an intermediate in the synthesis of other compounds. […] Upon storage or formulation of said known salt, progressive decomposition and concomitantly an increase in the amount and number of impurities was observed. Obviously, this problem is further aggravated under demanding environmental conditions such as light, heat, humidity or acidity.
It has been particularly difficult to find stable, crystalline forms of (R)-3-fluorophenyl-3,4,5-trifluorobenzylcarbamic acid 1-azabicyclo[2.2.2]oct-3-yl ester. […] Thus, there remains a need for a salt of (R)-3-fluorophenyl-3,4,5-trifluorobenzylcarbamic acid 1-azabicyclo[2.2.2]oct-3-yl ester that forms a crystalline solid that has a desirable morphology, be stable in the presence of water and under conditions of a high relative humidity (above 85%) and can readily be prepared on a large scale.

[3] = tested on: healthy postmenopausal females; experiment: Phase I clinical trial: tolerability and preliminary efficacy, voiding diary; format: in vivo, human
Experimental: A clinical trial was performed to evaluate the tolerability and preliminary efficacy of tarafenacin tartrate in healthy postmenopausal females.
Twelve subjects from 50 to 70 years old were randomized to receive tarafenacin tartrate 0.125 mg, 0.4 mg or placebo o.d. for 17 days. Subjects filled a diary to record time and volume of each void. A descriptive analysis was performed.

For `O=C(O)C(O)C(O)C(=O)O.O=C(O[C@H]1CN2CCC1CC2)N(Cc1cc(F)c(F)c(F)c1)c1cccc(F)c1` [D-tartrate salt, D-tartrate salt of (R)-3-fluorophenyl-3,4,5-trifluorobenzylcarbamic acid 1-azabicyclo[2.2.2]oct-3-yl ester], the “mass gain or mass loss” value ([1]; 12% RH, 4 h) was −0.26, the “mass gain or mass loss” value ([1]; 12% RH, 8 h) was −0.20 and the “mass gain or mass loss” value ([1]; 12% RH, 14 h) was −0.30. For the same compound, the “mass gain or mass loss” value ([1]; 12% RH, 48 h) was −0.04, the “mass gain or mass loss” value ([1]; 12% RH, 96 h) was −0.30 and the “mass gain or mass loss” value ([1]; 12% RH, 144 h) was −0.33. The “mass gain or mass loss” value ([1]; 12% RH, 168 h) was −0.32, the “mass gain or mass loss” value ([1]; 12% RH, 192 h) was −0.27 and the “mass gain or mass loss” value ([1]; 12% RH, 216 h) was −0.29. The “mass gain or mass loss” value ([1]; 12% RH, 240 h) was −0.08, the “mass gain or mass loss” value ([1]; 22% RH, 4 h) was −0.16 and the “mass gain or mass loss” value ([1]; 22% RH, 8 h) was −0.26. The “mass gain or mass loss” value ([1]; 22% RH, 14 h) was −0.25, the “mass gain or mass loss” value ([1]; 22% RH, 48 h) was −0.21 and the “mass gain or mass loss” value ([1]; 22% RH, 96 h) was −0.26. For the same compound, the “mass gain or mass loss” value ([1]; 22% RH, 144 h) was −0.18, the “mass gain or mass loss” value ([1]; 22% RH, 168 h) was −0.28 and the “mass gain or mass loss” value ([1]; 22% RH, 192 h) was −0.21. The “mass gain or mass loss” value ([1]; 22% RH, 216 h) was −0.19, the “mass gain or mass loss” value ([1]; 22% RH, 240 h) was −0.11 and the “mass gain or mass loss” value ([1]; 33% RH, 4 h) was −0.25. For the same compound, the “mass gain or mass loss” value ([1]; 33% RH, 8 h) was −0.24, the “mass gain or mass loss” value ([1]; 33% RH, 14 h) was −0.21 and the “mass gain or mass loss” value ([1]; 33% RH, 48 h) was −0.19. For the same compound, the “mass gain or mass loss” value ([1]; 33% RH, 96 h) was −0.17, the “mass gain or mass loss” value ([1]; 33% RH, 144 h) was −0.30 and the “mass gain or mass loss” value ([1]; 33% RH, 168 h) was −0.39. For the same compound, the “mass gain or mass loss” value ([1]; 33% RH, 192 h) was −0.11, the “mass gain or mass loss” value ([1]; 33% RH, 216 h) was −0.15 and the “mass gain or mass loss” value ([1]; 33% RH, 240 h) was −0.18. For the same compound, the “mass gain or mass loss” value ([1]; 43% RH, 4 h) was −0.38, the “mass gain or mass loss” value ([1]; 43% RH, 8 h) was −0.32 and the “mass gain or mass loss” value ([1]; 43% RH, 14 h) was −0.21. The “mass gain or mass loss” value ([1]; 43% RH, 48 h) was −0.25, the “mass gain or mass loss” value ([1]; 43% RH, 96 h) was −0.30 and the “mass gain or mass loss” value ([1]; 43% RH, 144 h) was −0.40. The “mass gain or mass loss” value ([1]; 43% RH, 168 h) was −0.34, the “mass gain or mass loss” value ([1]; 43% RH, 192 h) was −0.19 and the “mass gain or mass loss” value ([1]; 43% RH, 216 h) was −0.25. For the same compound, the “mass gain or mass loss” value ([1]; 43% RH, 240 h) was −0.18, the “mass gain or mass loss” value ([1]; 53% RH, 4 h) was −0.19 and the “mass gain or mass loss” value ([1]; 53% RH, 8 h) was −0.21. The “mass gain or mass loss” value ([1]; 53% RH, 14 h) was −0.16, the “mass gain or mass loss” value ([1]; 53% RH, 48 h) was −0.17 and the “mass gain or mass loss” value ([1]; 53% RH, 96 h) was −0.19. For the same compound, the “mass gain or mass loss” value ([1]; 53% RH, 144 h) was −0.17, the “mass gain or mass loss” value ([1]; 53% RH, 168 h) was −0.16 and the “mass gain or mass loss” value ([1]; 53% RH, 192 h) was −0.20. The “mass gain or mass loss” value ([1]; 53% RH, 216 h) was −0.14, the “mass gain or mass loss” value ([1]; 53% RH, 240 h) was 0.00 and the “mass gain or mass loss” value ([1]; 64% RH, 4 h) was −0.08. The “mass gain or mass loss” value ([1]; 64% RH, 8 h) was −0.07, the “mass gain or mass loss” value ([1]; 64% RH, 14 h) was −0.07 and the “mass gain or mass loss” value ([1]; 64% RH, 48 h) was 0.02. The “mass gain or mass loss” value ([1]; 64% RH, 96 h) was −0.07, the “mass gain or mass loss” value ([1]; 64% RH, 144 h) was 0.15 and the “mass gain or mass loss” value ([1]; 64% RH, 168 h) was 0.15. For the same compound, the “mass gain or mass loss” value ([1]; 64% RH, 192 h) was 0.20, the “mass gain or mass loss” value ([1]; 64% RH, 216 h) was 0.25 and the “mass gain or mass loss” value ([1]; 64% RH, 240 h) was 0.59. The “mass gain or mass loss” value ([1]; 75% RH, 4 h) was −0.08, the “mass gain or mass loss” value ([1]; 75% RH, 8 h) was 0.02 and the “mass gain or mass loss” value ([1]; 75% RH, 14 h) was 0.01. The “mass gain or mass loss” value ([1]; 75% RH, 48 h) was 0.06, the “mass gain or mass loss” value ([1]; 75% RH, 96 h) was −0.06 and the “mass gain or mass loss” value ([1]; 75% RH, 144 h) was −0.08. The “mass gain or mass loss” value ([1]; 75% RH, 168 h) was −0.05, the “mass gain or mass loss” value ([1]; 75% RH, 192 h) was 0.00 and the “mass gain or mass loss” value ([1]; 75% RH, 216 h) was 0.01. The “mass gain or mass loss” value ([1]; 75% RH, 240 h) was 0.29, the “mass gain or mass loss” value ([1]; 85% RH, 4 h) was 0.16 and the “mass gain or mass loss” value ([1]; 85% RH, 8 h) was 0.13. For the same compound, the “mass gain or mass loss” value ([1]; 85% RH, 14 h) was 0.22, the “mass gain or mass loss” value ([1]; 85% RH, 48 h) was 0.26 and the “mass gain or mass loss” value ([1]; 85% RH, 96 h) was 0.07. For the same compound, the “mass gain or mass loss” value ([1]; 85% RH, 144 h) was 0.24, the “mass gain or mass loss” value ([1]; 85% RH, 168 h) was 0.18 and the “mass gain or mass loss” value ([1]; 85% RH, 192 h) was 0.15. The “mass gain or mass loss” value ([1]; 85% RH, 216 h) was 0.23, the “mass gain or mass loss” value ([1]; 85% RH, 240 h) was 0.59 and the “mass gain or mass loss (in words)” value ([1]; 93% RH or below) was “No significant mass gain or mass loss”. The “mass gain or mass loss” value ([1]; 93% RH, 4 h) was 0.16, the “mass gain or mass loss” value ([1]; 93% RH, 8 h) was 0.03 and the “mass gain or mass loss” value ([1]; 93% RH, 14 h) was 0.24. The “mass gain or mass loss” value ([1]; 93% RH, 48 h) was 0.44, the “mass gain or mass loss” value ([1]; 93% RH, 96 h) was 0.40 and the “mass gain or mass loss” value ([1]; 93% RH, 144 h) was 0.43. For the same compound, the “mass gain or mass loss” value ([1]; 93% RH, 168 h) was 0.39, the “mass gain or mass loss” value ([1]; 93% RH, 192 h) was 0.38 and the “mass gain or mass loss” value ([1]; 93% RH, 216 h) was 0.43. The “mass gain or mass loss” value ([1]; 93% RH, 240 h) was 0.81, the “water addition (in words)” value ([1]; 97% RH) was “significant water addition issue” and the “mass gain or mass loss” value ([1]; 97% RH, 4 h) was 1.51. The “mass gain or mass loss” value ([1]; 97% RH, 8 h) was 1.06, the “mass gain or mass loss” value ([1]; 97% RH, 14 h) was 4.36 and the “mass gain or mass loss” value ([1]; 97% RH, 48 h) was 7.86. The “mass gain or mass loss” value ([1]; 97% RH, 96 h) was 13.77, the “mass gain or mass loss” value ([1]; 97% RH, 144 h) was 23.58 and the “mass gain or mass loss” value ([1]; 97% RH, 168 h) was 23.62. The “mass gain or mass loss” value ([1]; 97% RH, 192 h) was 23.06, the “mass gain or mass loss” value ([1]; 97% RH, 216 h) was 22.13 and the “mass gain or mass loss” value ([1]; 97% RH, 240 h) was 19.88. The KF initial ([1]; before the hygroscopicity study) was “HYGR[…] (KF initial = 0.9692%)”, the “hygroscopicity (in words)” value [2] was “relatively non-hygroscopic” and the “physicochemical stability (in words)” value [2] was “more stable than the hydrochloride salt”. For the same compound, the “physicochemical stability (in words)” value ([2]; listed as Form I) was “stable at room temperature”, the “effect on the volume of urine per void (in words)” value ([3]; 0.125 mg and 0.4 mg o.d. for 17 days) was “A dose-relationship was observed” and the “number of voids per day” value ([3]; 0.125 mg group, day 0) was 7.6 times per day. The “number of voids per day” value ([3]; 0.125 mg group, day 17) was 6.8 times per day, the volume per void ([3]; 0.125 mg o.d., from day 10 until day 17 (steady state)) was 450 to 550 mL and the “number of voids per day” value ([3]; 0.4 mg group, day 0) was 8 times per day. The “number of voids per day” value ([3]; 0.4 mg group, day 17) was 6.4 times per day and the “mean volumes per void” value ([3]; 0.4 mg o.d., from day 2 until the end of the study) was 550 to 650 mL.
